{"source": "patent EP4741383A1", "about": "“COMPOUND AND USE THEREOF AS ANTI-CANCER DRUG” (Tyligand Bioscience (Shanghai) Limited, priority 2023, dated 2025)", "data": [{"molecular_target": "T1, hERG potassium channel (Homo sapiens, UniProt Q12809)", "T1 construct": "host or cells: HEK-293", "T1 sequence (Q12809 whole entry)": "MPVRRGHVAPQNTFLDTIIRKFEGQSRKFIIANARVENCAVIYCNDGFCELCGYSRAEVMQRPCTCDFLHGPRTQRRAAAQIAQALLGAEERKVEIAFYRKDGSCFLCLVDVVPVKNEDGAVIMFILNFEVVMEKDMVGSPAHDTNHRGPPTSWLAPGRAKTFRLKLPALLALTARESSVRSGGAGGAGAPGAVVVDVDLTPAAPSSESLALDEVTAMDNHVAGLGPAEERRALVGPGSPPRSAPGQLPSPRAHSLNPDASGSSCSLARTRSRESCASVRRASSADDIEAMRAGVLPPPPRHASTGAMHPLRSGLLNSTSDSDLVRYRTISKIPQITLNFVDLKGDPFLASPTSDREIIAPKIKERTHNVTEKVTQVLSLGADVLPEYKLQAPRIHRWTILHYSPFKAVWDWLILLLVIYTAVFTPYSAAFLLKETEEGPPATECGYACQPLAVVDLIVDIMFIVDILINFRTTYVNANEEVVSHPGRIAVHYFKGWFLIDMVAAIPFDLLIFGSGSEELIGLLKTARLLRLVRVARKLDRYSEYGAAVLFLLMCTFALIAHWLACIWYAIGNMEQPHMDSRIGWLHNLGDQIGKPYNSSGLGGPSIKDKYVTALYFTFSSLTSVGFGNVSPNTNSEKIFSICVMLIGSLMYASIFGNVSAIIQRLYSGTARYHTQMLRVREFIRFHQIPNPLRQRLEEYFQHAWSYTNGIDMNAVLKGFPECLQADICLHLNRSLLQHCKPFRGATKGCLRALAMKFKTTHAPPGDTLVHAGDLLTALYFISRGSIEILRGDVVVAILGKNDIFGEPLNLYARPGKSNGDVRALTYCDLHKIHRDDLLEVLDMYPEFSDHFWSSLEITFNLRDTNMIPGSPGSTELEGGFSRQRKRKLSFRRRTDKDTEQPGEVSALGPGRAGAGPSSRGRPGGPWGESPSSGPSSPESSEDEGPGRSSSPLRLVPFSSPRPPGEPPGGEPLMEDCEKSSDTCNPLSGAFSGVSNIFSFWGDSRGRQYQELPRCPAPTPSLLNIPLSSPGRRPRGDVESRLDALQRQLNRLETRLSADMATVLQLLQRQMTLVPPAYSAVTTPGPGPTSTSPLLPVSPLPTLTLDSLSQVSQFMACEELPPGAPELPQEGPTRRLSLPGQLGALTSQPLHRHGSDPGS", "assay": "hERG manual patch-clamp assay in HEK-293 cells", "type": "cell-based", "settings": "HEK-293 cells stably expressing the hERG potassium channel, HEK-293 cells stably expressing hERG", "source_text": "This experiment was a non-GLP trial conducted with reference to GLP guidelines and in accordance with the following technical guidelines: National Medical Products Administration: Technical Guidelines for Non-Clinical Studies of Potential Effects of Drugs on QT Interval Prolongation (2014), and ICH S7B Guidelines for Non-Clinical Evaluation of Potential Drug-Induced Delayed Ventricular Repolarization (QT Interval Prolongation) in Humans (2005).\nSample preparation: the weighed test substance was prepared into a 5 mM or 10 mM stock solution with DMSO, then diluted with DMSO to a 3.33 mM diluent. The stock solution was then diluted with extracellular fluid to prepare a 10 µM working solution, ensuring a DMSO concentration of 0.3%. The solution was sonicated for 20 min. The solubility of the test sample was visually inspected; all concentrations dissolved completely without any visible precipitate.\nPreparation of positive control: 3.99 mg Cisapride (positive control) was prepared into a 10 mM stock solution using 807.96 µL DMSO. This stock solution was then successively diluted with DMSO to 1000, 333.33, 33.33, 3.33, and 0.33 µM dilutions. Before testing, 30 µL of each of the last four dilutions was added to 10 mL of extracellular fluid, ensuring a DMSO concentration of 0.3%. The final working solution concentrations of Cisapride were 1000, 100, 10, and 1 nM. Cisapride was visually inspected for solubility; all concentrations dissolved completely without any visible precipitate.\nThe blank control stock solution (DMSO) should be stored at room temperature. The blank control working solution should be prepared on the same day and stored at room temperature. The test substance and positive control stock solutions should be stored at -20 °C. […]\nThe hERG activity of the representative compounds of this disclosure was detected using conventional manual patch-clamp techniques in the art (Patch-Clamp Methods and Protocols, 2014, 2nd edition, Humana Press, edited by Marzia Martina and Stefano Taverna).", "units": {"inhibition at 10 µM": "%"}, "values": [{"smiles": "O=C(Nc1ccc(-c2cc3cc(F)c(-c4nnn[nH]4)cc3n2C2CCC2)cc1)C(=O)Nc1ccc(N2CCC(CO)CC2)cc1", "note": "[Example 23]", "inhibition at 10 µM": -0.72}, {"smiles": "O=C(Nc1ccc(-c2cc3cc(F)c(-c4nnn[nH]4)cc3n2C2CCC2)cc1)C(=O)Nc1ccc(N2CCC3(CCOC3)CC2)cc1", "note": "[Example 67]", "inhibition at 10 µM": 16.9}, {"smiles": "CC1(n2c(-c3ccc(NC(=O)C(=O)Nc4ccc(N5CCC6(CCOC6)CC5)cc4)cc3)cc3cc(F)c(-c4nnn[nH]4)cc32)CCC1", "note": "[Example 68]", "inhibition at 10 µM": 8.79}]}]}
